Measured values from patent US20070264679A1, “Method for analyzing the activity of lipoxygenase using a water-soluble substrate” (Chungnam National University Industry Collaboration …, priority 2006, published 2007).

What was measured:
[1] = molecular target: T1, Leukocyte 12-lipoxygenase (leukocyte LOX) (Sus scrofa, UniProt P16469); test: Kinetics of oxygenation of arachidonic acid or arachidonoyl-lysophospholipids by leukocyte LOX; type: biochemical, porcine; conditions: for Vm: 0.03% Tween 20
T1 construct: purchased Cayman Chemical Co. (Ann Arbor, Mich., USA)
T1 sequence (P16469 1-663): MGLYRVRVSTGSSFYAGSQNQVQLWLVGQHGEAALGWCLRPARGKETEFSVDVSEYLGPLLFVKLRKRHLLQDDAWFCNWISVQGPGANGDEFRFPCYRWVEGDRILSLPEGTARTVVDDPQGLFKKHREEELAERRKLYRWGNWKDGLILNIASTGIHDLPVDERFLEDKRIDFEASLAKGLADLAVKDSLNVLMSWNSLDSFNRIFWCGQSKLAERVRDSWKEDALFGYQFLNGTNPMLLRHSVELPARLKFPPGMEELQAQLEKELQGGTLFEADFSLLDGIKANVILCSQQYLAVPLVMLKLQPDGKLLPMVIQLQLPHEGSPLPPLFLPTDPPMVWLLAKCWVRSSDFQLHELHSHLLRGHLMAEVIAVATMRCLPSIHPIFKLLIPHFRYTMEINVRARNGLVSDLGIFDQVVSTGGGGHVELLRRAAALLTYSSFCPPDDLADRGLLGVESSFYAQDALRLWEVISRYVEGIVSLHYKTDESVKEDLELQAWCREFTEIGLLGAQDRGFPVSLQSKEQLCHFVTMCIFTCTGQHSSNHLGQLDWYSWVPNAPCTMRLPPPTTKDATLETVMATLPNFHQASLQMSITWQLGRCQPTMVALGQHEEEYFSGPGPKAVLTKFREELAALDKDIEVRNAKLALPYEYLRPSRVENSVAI
Description: (§1) Activities of various LOXs were monitored by measuring the increase in absorbance at 234 nm due to the formation of hydroperoxide (ε234=25,000 M^−1 cm^−1) at 25° C. as described before (Smith et al, J. Biol. Chem. 247 (1972) 1038-1047). One unit is defined as the amount of LOXs that can produce one nanomole of conjugated diene per min. The reaction mixture (500 μl) included reticulocyte LOX (2 units/ml) in 50 mM phosphate buffer (pH 7.4), porcine leukocyte LOX (1 unit/ml) in 100 mM phosphate buffer (pH 7.5) containing 5 mM EDTA and 0.03% Tween 20, or soybean LOX-1 (2.5 units/ml) in 50 mM borax buffer (pH 9.0) at 25° C. The reactions were started by including each substrate (100 μM) into the above reaction mixture.
(§2) Reticulocyte LOX (2 units/ml), leukocyte LOX (1 units/ml) or soybean LOX-1 (2.5 units/ml) was incubated with each arachidonoyl derivative substrate of various concentrations as described above. The values of kinetic parameters were obtained according to Lineweaver Burke plot analyses as described before (Barroso et al, J. Chromatogr. B. Analyt. Technol. Biomed. Life. Sci. 814 (2005) 21-28).

[2] = molecular target: T2, soybean LOX-1 (Glycine max, UniProt P08170); test: Kinetics of oxygenation of arachidonic acid or arachidonoyl-lysophospholipids by soybean LOX-1; type: biochemical; conditions: soybean LOX-1 2.5 units/ml; for Km: 50 mM borax buffer pH 9.0, 25° C.; for Vm: 50 mM borax buffer pH 9.0, unit = one nanomole conjugated diene per min
T2 construct: purchased Sigma-Aldrich Corp (St. Louis, Mo., USA) lipoxidase Type I-B
T2 sequence (P08170 1-839): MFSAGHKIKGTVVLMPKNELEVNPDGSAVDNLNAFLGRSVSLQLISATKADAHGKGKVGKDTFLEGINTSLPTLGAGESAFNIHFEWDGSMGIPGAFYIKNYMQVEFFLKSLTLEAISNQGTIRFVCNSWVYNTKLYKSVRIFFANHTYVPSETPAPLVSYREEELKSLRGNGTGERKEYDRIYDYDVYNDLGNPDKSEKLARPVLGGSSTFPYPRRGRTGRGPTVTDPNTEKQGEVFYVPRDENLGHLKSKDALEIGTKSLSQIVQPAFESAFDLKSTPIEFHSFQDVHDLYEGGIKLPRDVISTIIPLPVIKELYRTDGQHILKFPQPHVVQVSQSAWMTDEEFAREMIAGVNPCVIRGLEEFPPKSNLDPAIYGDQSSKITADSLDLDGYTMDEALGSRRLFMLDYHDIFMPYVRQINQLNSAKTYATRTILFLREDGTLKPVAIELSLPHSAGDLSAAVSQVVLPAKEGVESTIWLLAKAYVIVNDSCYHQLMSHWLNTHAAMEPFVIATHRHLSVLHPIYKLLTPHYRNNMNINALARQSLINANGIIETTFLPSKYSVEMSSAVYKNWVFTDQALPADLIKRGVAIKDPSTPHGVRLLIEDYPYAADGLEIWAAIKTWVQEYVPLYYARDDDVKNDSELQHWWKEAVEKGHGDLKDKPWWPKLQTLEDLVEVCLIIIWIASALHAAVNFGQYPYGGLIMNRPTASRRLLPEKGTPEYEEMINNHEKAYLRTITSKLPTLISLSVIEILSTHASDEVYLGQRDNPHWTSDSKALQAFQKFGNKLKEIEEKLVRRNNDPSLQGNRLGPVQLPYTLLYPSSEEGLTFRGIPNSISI
Description: as §1, §2

[3] = molecular target: T3, Reticulocyte LOX (Oryctolagus cuniculus, UniProt P12530); test: Kinetics of oxygenation of linoleoylated substrates by reticulocyte LOX; type: biochemical, Rabbit; conditions: reticulocyte LOX 8.2 units/ml, 50 mM phosphate buffer pH 7.4, 25° C.; for Km: substrate 3-100 μM
T3 construct: purchased Biomol Inc. (Plymouth Meeting, Pa., USA)
T3 sequence (P12530 1-663): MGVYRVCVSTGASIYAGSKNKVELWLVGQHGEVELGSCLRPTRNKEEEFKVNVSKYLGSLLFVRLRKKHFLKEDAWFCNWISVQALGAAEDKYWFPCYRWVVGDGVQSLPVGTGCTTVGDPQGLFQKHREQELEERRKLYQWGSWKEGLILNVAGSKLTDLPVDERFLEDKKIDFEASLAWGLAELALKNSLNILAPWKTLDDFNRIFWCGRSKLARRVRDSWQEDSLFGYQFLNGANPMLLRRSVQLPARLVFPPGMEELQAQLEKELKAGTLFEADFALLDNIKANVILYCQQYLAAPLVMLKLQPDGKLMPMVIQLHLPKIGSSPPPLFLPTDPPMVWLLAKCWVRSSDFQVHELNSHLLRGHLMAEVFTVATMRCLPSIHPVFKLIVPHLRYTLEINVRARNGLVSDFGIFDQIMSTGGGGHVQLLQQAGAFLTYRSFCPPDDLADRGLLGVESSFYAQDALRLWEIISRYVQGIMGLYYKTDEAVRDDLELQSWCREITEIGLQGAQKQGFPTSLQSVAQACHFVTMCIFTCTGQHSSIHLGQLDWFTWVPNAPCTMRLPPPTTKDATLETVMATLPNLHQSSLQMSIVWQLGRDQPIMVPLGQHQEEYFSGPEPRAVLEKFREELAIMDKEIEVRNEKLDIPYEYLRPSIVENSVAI
Source text: Data were expressed as means ±S.D. of results from at least three independent experiments.

CCCCC/C=C\C/C=C\C/C=C\C/C=C\CCCC(=O)OCC(O)COP(=O)([O-])OCC[N+](C)(C)C (stereo not drawn) [Arachidonoyl-lysoPC, 1-Arachidonoyl lysophosphatidylcholine]
efficacy as a substrate for leukocyte LOX (Vm/Km) relative to arachidonic acid ([1]; greater than that of arachidonic acid): approximately 10 fold | Vm ([1]; leukocyte LOX 1 unit/ml, 100 mM phosphate buffer pH 7.5, 5 mM EDTA): 199.8 ± 16.7 units/mg | Km ([1]; leukocyte LOX 1 unit/ml, 100 mM phosphate buffer pH 7.5, 5 mM EDTA, 0.03% Tween 20, 25° C.): 2.6 µM | Vm ([1]; leukocyte LOX 1 unit/ml, 100 mM phosphate buffer pH 7.5, 5 mM EDTA, listed as arachidonoyl-lysoPC): 199.8 units/mg | Km [2]: 5.37 ± 1.6 µM | Km ([2]; listed as arachidonoyl-lysoPC): 5.4 µM | Vm [2]: 97.0 ± 8.2 units/μg | Vm ([2]; listed as arachidonoyl-lysoPC): 97.0 units/μg

CCCCC/C=C\C/C=C\CCCCCCCC(=O)O [Linoleic acid, linoleic acid]
Vm [3]: 545 ± 5 units/mg | Km [3]: 12.1 ± 0.8 µM

CCCCC/C=C\C/C=C\CCCCCCCC(=O)OCC(O)COP(=O)([O-])OCC[N+](C)(C)C (stereo not drawn) [Linoleoyl-lysoPC, 1-linoleoyl Lysophosphatidylcholine]
Vm [3]: 1622 ± 19 units/mg | Km [3]: 17.5 ± 0.9 µM
